From patent publication US8247211B2, “Glycopeptide antibiotics” (American Cyanamid Company, priority 2001, dated 2012)
Values after ≈ are worked out from the molar mass of the structure shown.

What was measured:
Experiment in all cases: In vitro antibacterial evaluation: minimum inhibitory concentration (MIC), broth dilution method
Assay type in all cases: cell-based
Enterococcus sp. = conditions: 18 hours at 35° C.
Procedure, shortened: (§1)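 Values are minimum inhibitory concentrations, meaning the smallest antibiotic concentration that stops growth of the organism. They come from broth dilution in Muller-Hinton II […] per NCCLS guidance (M7-A2), using 5×10^5 CFU/mL and concentrations from 64 to 0.06 μg/mL.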

Staphylococcus sp. = test system: Staphylococcus sp.
Procedure, shortened: as §1

Streptococcus sp. = conditions: 18 hours at 35° C.
Procedure, shortened: as §1

Escherichia coli = conditions: 18 hours at 35° C.
Procedure, shortened: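 Following NCCLS approved standard M7-A2, compounds are serially diluted from 64 to 0.06 μg/mL in Muller-Hinton II […] and inoculated at 5×10^5 CFU/mL; the MIC is the minimum concentration at which growth is inhibited.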

[1] = broth dilution, inoculum 5×10^5 CFU/mL

- MIC Enterococcus avium (GC 4558) (Enterococcus sp.; Enterococcus avium (GC 4558)): 4 mg/L (≈ 2.85 µM)
- MIC Enterococcus faecalis (ATCC 29212) (Enterococcus sp.; Enterococcus faecalis (ATCC 29212)): 2 mg/L (≈ 1.43 µM)
- MIC Enterococcus faecalis (GC 2242) (Enterococcus sp.; Enterococcus faecalis (GC 2242)): 4 mg/L (≈ 2.85 µM)
- MIC Enterococcus faecalis (GC 2691) (Enterococcus sp.; Enterococcus faecalis (GC 2691)): 4 mg/L (≈ 2.85 µM)
- MIC Enterococcus faecalis (GC 3059) (Enterococcus sp.; Enterococcus faecalis (GC 3059)): 2 mg/L (≈ 1.43 µM)
- MIC Enterococcus faecalis (GC 4552) (Enterococcus sp.; Enterococcus faecalis (GC 4552)): 4 mg/L (≈ 2.85 µM)
- MIC Enterococcus faecalis (GC 4553) (Enterococcus sp.; Enterococcus faecalis (GC 4553)): 2 mg/L (≈ 1.43 µM)
- MIC Enterococcus faecalis (GC 4554) (Enterococcus sp.; Enterococcus faecalis (GC 4554)): 4 mg/L (≈ 2.85 µM)
- MIC Enterococcus faecalis (GC 6189) (Enterococcus sp.; Enterococcus faecalis (GC 6189)): 2 mg/L (≈ 1.43 µM)
- MIC Enterococcus faecium (GC 2243) (Enterococcus sp.; Enterococcus faecium (GC 2243)): 2 mg/L (≈ 1.43 µM)
- MIC Enterococcus faecium (GC 4556) (Enterococcus sp.; Enterococcus faecium (GC 4556)): 2 mg/L (≈ 1.43 µM)
- MIC Enterococcus faecium (GC 4557) (Enterococcus sp.; Enterococcus faecium (GC 4557)): 4 mg/L (≈ 2.85 µM)
- MIC Enterococcus avium (GC 4558) (Enterococcus sp.; [1]): 4 mg/L (≈ 2.85 µM)
- MIC Enterococcus faecalis (ATCC 29212) (Enterococcus sp.; [1]): 2 mg/L (≈ 1.43 µM)
- MIC Enterococcus faecalis (GC 2242) (Enterococcus sp.; [1]): 4 mg/L (≈ 2.85 µM)
- MIC Enterococcus faecalis (GC 2691) (Enterococcus sp.; [1]): 4 mg/L (≈ 2.85 µM)
- MIC Enterococcus faecalis (GC 3059) (Enterococcus sp.; [1]): 2 mg/L (≈ 1.43 µM)
- MIC Enterococcus faecalis (GC 4552) (Enterococcus sp.; [1]): 4 mg/L (≈ 2.85 µM)
- MIC Enterococcus faecalis (GC 4553) (Enterococcus sp.; [1]): 2 mg/L (≈ 1.43 µM)
- MIC Enterococcus faecalis (GC 4554) (Enterococcus sp.; [1]): 4 mg/L (≈ 2.85 µM)
- MIC Enterococcus faecalis (GC 6189) (Enterococcus sp.; [1]): 2 mg/L (≈ 1.43 µM)
- MIC Enterococcus faecium (GC 2243) (Enterococcus sp.; [1]): 2 mg/L (≈ 1.43 µM)
- MIC Enterococcus faecium (GC 4556) (Enterococcus sp.; [1]): 2 mg/L (≈ 1.43 µM)
- MIC Enterococcus faecium (GC 4557) (Enterococcus sp.; [1]): 4 mg/L (≈ 2.85 µM)
- MIC Staphylococcus aureus (ATCC 29213) (Staphylococcus sp.; strain ATCC 29213): 2 mg/L (≈ 1.43 µM)
- MIC Staphylococcus aureus (GC 1131) (Staphylococcus sp.; strain GC 1131): 2 mg/L (≈ 1.43 µM)
- MIC Staphylococcus aureus (GC 3051) (Staphylococcus sp.; strain GC 3051): 2 mg/L (≈ 1.43 µM)
- MIC Staphylococcus aureus (GC 3053) (Staphylococcus sp.; strain GC 3053): 2 mg/L (≈ 1.43 µM)
- MIC Staphylococcus aureus (GC 4541) (Staphylococcus sp.; strain GC 4541): 2 mg/L (≈ 1.43 µM)
- MIC Staphylococcus aureus (GC 4542) (Staphylococcus sp.; strain GC 4542): 2 mg/L (≈ 1.43 µM)
- MIC Staphylococcus aureus-SMITH (GC 4543) (Staphylococcus sp.; strain GC 4543): 2 mg/L (≈ 1.43 µM)
- MIC Staphylococcus aureus (GC 4544) (Staphylococcus sp.; strain GC 4544): 2 mg/L (≈ 1.43 µM)
- MIC Staphylococcus aureus (GC 4545) (Staphylococcus sp.; strain GC 4545): 2 mg/L (≈ 1.43 µM)
- MIC Coagulase Negative Staphylococcus (GC 4547) (Staphylococcus sp.; strain GC 4547): 2 mg/L (≈ 1.43 µM)
- MIC Coagulase Negative Staphylococcus (GC 4548) (Staphylococcus sp.; strain GC 4548): 1 mg/L (≈ 0.713 µM)
- MIC Coagulase Negative Staphylococcus (GC 4549) (Staphylococcus sp.; strain GC 4549): 1 mg/L (≈ 0.713 µM)
- MIC Coagulase Negative Staphylococcus (GC 4551) (Staphylococcus sp.; strain GC 4551): 2 mg/L (≈ 1.43 µM)
- MIC Streptococcus agalactiae (GC 4564) (Streptococcus sp.; Streptococcus agalactiae (GC 4564)): <0.12 mg/L
- MIC Streptococcus pneumoniae (ATCC 6301) (Streptococcus sp.; Streptococcus pneumoniae (ATCC 6301)): <0.12 mg/L
- MIC Streptococcus pneumoniae (GC 1894) (Streptococcus sp.; Streptococcus pneumoniae (GC 1894)): <0.12 mg/L
- MIC Streptococcus pneumoniae (GC 4565) (Streptococcus sp.; Streptococcus pneumoniae (GC 4565)): <0.12 mg/L
- MIC Streptococcus pyogenes (GC 4563) (Streptococcus sp.; Streptococcus pyogenes (GC 4563)): <0.12 mg/L
- MIC Streptococcus agalactiae (GC 4564) (Streptococcus sp.; [1]): <0.12 mg/L
- MIC Streptococcus pneumoniae (ATCC 6301) (Streptococcus sp.; [1]): <0.12 mg/L
- MIC Streptococcus pneumoniae (GC 1894) (Streptococcus sp.; [1]): <0.12 mg/L
- MIC Streptococcus pneumoniae (GC 4565) (Streptococcus sp.; [1]): <0.12 mg/L
- MIC Streptococcus pyogenes (GC 4563) (Streptococcus sp.; [1]): <0.12 mg/L
- MIC Escherichia coli (ATCC 25922) (Escherichia coli; Escherichia coli (ATCC 25922)): 64 mg/L (≈ 45.6 µM)
- MIC Escherichia coli (GC 4560) (Escherichia coli; Escherichia coli (GC 4560)): 1 mg/L (≈ 0.713 µM)
SMILES: CC(c1ccccc1)C1NC(=O)CNC(=O)C(CO)NC(=O)C(C(O)C2CNC(=N)N2C2OC(CO)C(O)C(O)C2O)NC(=O)C(C(O)C2CNC(=N)N2)NC(=O)C(Cc2ccc(OC3OC(CO)C(OC4OC5COC6(CCCCC6(C)C)OC5C(O)C4O)C(O)C3O)cc2)NC1=O (stereo not drawn) [Example 205, Cyclo[glycyl-β-methylphenylalanyl-O-[4-O-[4,6-O-(2,2-dimethylcyclohexylidene)hexopyranosyl]hexopyranosyl]tyrosyl-3-(2-iminoimidazolidin-4-yl)seryl-3-(3-hexopyranosyl-2-iminoimidazolidin-4-yl)serylseryl]]
- MIC Staphylococcus haemolyticus (GC 4546) (Staphylococcus sp.; strain GC 4546): 2 mg/L (≈ 1.43 µM)
